# Columns and labels:
# Settings in all cases: 72 h
# HDQ-P1 [1] = tested on: HDQ-P1
# Method: (§1)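 Drug sensitivity and resistance testing (DSRT) of breast cancer cell lines in 384-well plates, 5 concentrations in 10-fold dilutions over a compound-specific 10,000-fold range. After 72 h, cytotoxicity was read by CellTox Green fluorescence and viability by CellTiter-Glo luminescence (multiplexed), normalised to DMSO and benzethonium chloride controls. EC50 is the inflection point of the fitted dose-response curve (bottom asymptote free, so it can be relative for partial curves) and is censored at the highest tested concentration. Rows with DSS 0 (no meaningful response) were excluded.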
# MDA-MB-453 [2] = tested on: MDA-MB-453
# Method: as §1
# CAL-51 [3] = tested on: CAL-51
# Method: as §1
# CAL-85-1 [4] = tested on: CAL-85-1
# Method: as §1
# HDQ-P1 [5] = tested on: HDQ-P1; remark: listed apart in the source
# Summary of the method: (§2)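 Two sequential readouts followed a 72 h incubation of breast cancer cell lines with compound at 5 concentrations in 10-fold steps over a compound-specific 10,000-fold range: CellTox Green fluorescence (485/520 nm) for cell death, then CellTiter-Glo luminescence, after 10 min at room temperature, for viability. Each plate was normalised to 0.1 % DMSO and a positive kill control. Dose-response curves were fitted for EC50, censored at the top concentration.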
# SK-BR-3 [6] = tested on: SK-BR-3
# Summary of the method: as §2
# MCF-10A [7] = tested on: MCF-10A
# Summary of the method: as §2
# MDA-MB-453 [8] = tested on: MDA-MB-453; remark: listed apart in the source
# Summary of the method: as §2
# CAL-51 [9] = tested on: CAL-51; remark: listed apart in the source
# Summary of the method: as §2
# CAL-85-1 [10] = tested on: CAL-85-1; remark: listed apart in the source
# Summary of the method: as §2
# MFM-223 [11] = tested on: MFM-223
# Summary of the method: (§3)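 Compound dissolved in 5 µl medium was placed in 384-well plates before 20 µl of breast cancer cell suspension was added, and the plates were incubated for 72 h. Cells then received 2.5 µl CellTiter-Blue for 2 h at 37 °C, and fluorescence was read at 560/590 nm. EC50 values come from percent-inhibition dose-response fits that were censored at the highest concentration, with plates normalised to vehicle and a positive kill control and rows with a zero drug sensitivity score excluded.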
# BT-474 [12] = tested on: BT-474
# Summary of the method: as §3
# HCC1143 [13] = tested on: HCC1143
# Summary of the method: as §3
# MDA-MB-436 [14] = tested on: MDA-MB-436
# Summary of the method: as §3
# HCC1937 [15] = tested on: HCC1937
# Summary of the method: as §3
# HCC1599 [16] = tested on: HCC1599
# Summary of the method: as §3
# MDA-MB-468 [17] = tested on: MDA-MB-468
# Summary of the method: as §3
# BT-549 = tested on: BT-549
# Summary of the method: as §3
# SK-BR-3 [18] = tested on: SK-BR-3; remark: listed apart in the source
# Summary of the method: as §3
# CAL-120 [19] = tested on: CAL-120
# Summary of the method: as §3
# Hs578T [20] = tested on: Hs578T
# Summary of the method: as §3
# MDA-MB-231 [21] = tested on: MDA-MB-231
# Summary of the method: as §3
# HDQ-P1 [22] = tested on: HDQ-P1; remark: listed apart in the source
# Summary of the method: as §3
# DU-4475 [23] = tested on: DU-4475
# Summary of the method: as §3
# CAL-148 [24] = tested on: CAL-148
# Summary of the method: as §3
# MDA-MB-453 [25] = tested on: MDA-MB-453; remark: listed apart in the source
# Summary of the method: as §3
# CAL-51 [26] = tested on: CAL-51; remark: listed apart in the source
# Summary of the method: as §3
# CAL-85-1 [27] = tested on: CAL-85-1; remark: listed apart in the source
# Summary of the method: as §3
# MFM-223 [28] = tested on: MFM-223; remark: listed apart in the source
# Method: as §1
# BT-474 [29] = tested on: BT-474; remark: listed apart in the source
# Method: as §1
# MDA-MB-436 [30] = tested on: MDA-MB-436; remark: listed apart in the source
# Method: as §1
# HCC1937 [31] = tested on: HCC1937; remark: listed apart in the source
# Method: as §1
# HCC1599 [32] = tested on: HCC1599; remark: listed apart in the source
# Method: as §1
# MDA-MB-468 [33] = tested on: MDA-MB-468; remark: listed apart in the source
# Method: as §1
# MCF-10A [34] = tested on: MCF-10A; remark: listed apart in the source
# Method: as §1
# Hs578T [35] = tested on: Hs578T; remark: listed apart in the source
# Method: as §1
# MFM-223 [36] = tested on: MFM-223; remark: listed apart in the source
# Summary of the method: as §2
# BT-474 [37] = tested on: BT-474; remark: listed apart in the source
# Summary of the method: as §2
# DU-4475 [38] = tested on: DU-4475; remark: listed apart in the source
# Summary of the method: as §2
# HCC1143 [39] = tested on: HCC1143; remark: listed apart in the source
# Summary of the method: as §2
# HCC1599 [40] = tested on: HCC1599; remark: listed apart in the source
# Summary of the method: as §2
# MDA-MB-468 [41] = tested on: MDA-MB-468; remark: listed apart in the source
# Summary of the method: as §2
# CAL-120 [42] = tested on: CAL-120; remark: listed apart in the source
# Summary of the method: as §2
# CAL-148 [43] = tested on: CAL-148; remark: listed apart in the source
# Summary of the method: as §2
# Hs578T [44] = tested on: Hs578T; remark: listed apart in the source
# Summary of the method: as §2
# MDA-MB-231 [45] = tested on: MDA-MB-231; remark: listed apart in the source
# Summary of the method: as §2
structure (smiles),measurement,setting,value
C=CC(=O)N1CCC[C@@H](n2nc(-c3ccc(Oc4ccccc4)cc3)c3c(N)ncnc32)C1 [Ibrutinib],"EC50, CellTox Green",HDQ-P1 [1],> 1000 nM
same,"EC50, CellTox Green",MDA-MB-453 [2],943 nM
same,"EC50, CellTox Green",CAL-51 [3],> 1000 nM
same,"EC50, CellTox Green",CAL-85-1 [4],416 nM
same,"EC50, CellTiter-Glo",HDQ-P1 [5],168 nM
same,"EC50, CellTiter-Glo",SK-BR-3 [6],11.9 nM
same,"EC50, CellTiter-Glo",MCF-10A [7],198 nM
same,"EC50, CellTiter-Glo",MDA-MB-453 [8],10.5 nM
same,"EC50, CellTiter-Glo",CAL-51 [9],415 nM
same,"EC50, CellTiter-Glo",CAL-85-1 [10],493 nM
O=C(Cc1ccc(-c2ccc(OCCN3CCOCC3)cc2)cn1)NCc1ccccc1 [KX2-391],"EC50, CellTiter-Blue viability",MFM-223 [11],57.4 nM
same,"EC50, CellTiter-Blue viability",BT-474 [12],47.9 nM
same,"EC50, CellTiter-Blue viability",HCC1143 [13],13.6 nM
same,"EC50, CellTiter-Blue viability",MDA-MB-436 [14],51.4 nM
same,"EC50, CellTiter-Blue viability",HCC1937 [15],47.2 nM
same,"EC50, CellTiter-Blue viability",HCC1599 [16],212 nM
same,"EC50, CellTiter-Blue viability",MDA-MB-468 [17],40.3 nM
same,"EC50, CellTiter-Blue viability",BT-549,37.8 nM
same,"EC50, CellTiter-Blue viability",SK-BR-3 [18],34.8 nM
same,"EC50, CellTiter-Blue viability",CAL-120 [19],31.3 nM
same,"EC50, CellTiter-Blue viability",Hs578T [20],27.9 nM
same,"EC50, CellTiter-Blue viability",MDA-MB-231 [21],43.1 nM
same,"EC50, CellTiter-Blue viability",HDQ-P1 [22],53.6 nM
same,"EC50, CellTiter-Blue viability",DU-4475 [23],46 nM
same,"EC50, CellTiter-Blue viability",CAL-148 [24],47.1 nM
same,"EC50, CellTiter-Blue viability",MDA-MB-453 [25],35.1 nM
same,"EC50, CellTiter-Blue viability",CAL-51 [26],63 nM
same,"EC50, CellTiter-Blue viability",CAL-85-1 [27],23.1 nM
same,"EC50, CellTox Green",MFM-223 [28],328 nM
same,"EC50, CellTox Green",BT-474 [29],307 nM
same,"EC50, CellTox Green",HDQ-P1 [1],4110 nM
same,"EC50, CellTox Green",MDA-MB-436 [30],> 10000 nM
same,"EC50, CellTox Green",HCC1937 [31],5000 nM
same,"EC50, CellTox Green",HCC1599 [32],267 nM
same,"EC50, CellTox Green",MDA-MB-468 [33],19.4 nM
same,"EC50, CellTox Green",MCF-10A [34],59.8 nM
same,"EC50, CellTox Green",Hs578T [35],523 nM
same,"EC50, CellTox Green",CAL-51 [3],23.8 nM
same,"EC50, CellTox Green",CAL-85-1 [4],22.1 nM
same,"EC50, CellTiter-Glo",MFM-223 [36],83.9 nM
same,"EC50, CellTiter-Glo",BT-474 [37],70 nM
same,"EC50, CellTiter-Glo",HDQ-P1 [5],26.5 nM
same,"EC50, CellTiter-Glo",DU-4475 [38],34.7 nM
same,"EC50, CellTiter-Glo",HCC1143 [39],28.2 nM
same,"EC50, CellTiter-Glo",HCC1599 [40],61.9 nM
same,"EC50, CellTiter-Glo",MDA-MB-468 [41],44.2 nM
same,"EC50, CellTiter-Glo",SK-BR-3 [6],20.1 nM
same,"EC50, CellTiter-Glo",CAL-120 [42],57.1 nM
same,"EC50, CellTiter-Glo",CAL-148 [43],35.8 nM
same,"EC50, CellTiter-Glo",MCF-10A [7],29.6 nM
same,"EC50, CellTiter-Glo",Hs578T [44],49.6 nM
same,"EC50, CellTiter-Glo",MDA-MB-453 [8],55.6 nM
same,"EC50, CellTiter-Glo",CAL-51 [9],16.8 nM
same,"EC50, CellTiter-Glo",CAL-85-1 [10],23 nM
same,"EC50, CellTiter-Glo",MDA-MB-231 [45],75.9 nM

# Reference: the supplement of paper PMC4862054
